PubChem BioAssay (NCI)
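How tested: cells in 96-well plates exposed to compound for 48 hours at five concentrations. At the GI50, growth is halved. TGI marks complete inhibition of growth.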

Tests used:
Experiment in all cases: NCI-60 cell line screen, 48 h
[1] = test system: 786-0 renal
[2] = test system: A498 renal
[3] = test system: A549 NSCLC
[4] = test system: ACHN renal
[5] = test system: BT-549 breast
[6] = test system: CCRF-CEM leukemia
[7] = test system: COLO 205 colon
[8] = test system: EKVX NSCLC
[9] = test system: HCC-2998 colon
[10] = test system: HCT-116 colon
[11] = test system: HCT-15 colon
[12] = test system: HOP-62 NSCLC
[13] = test system: HS 578T breast
[14] = test system: HT29 colon
[15] = test system: IGROV1 ovarian
[16] = test system: K-562 leukemia
[17] = test system: KM12 colon
[18] = test system: LOX IMVI melanoma
[19] = test system: M14 melanoma
[20] = test system: MCF7 breast
[21] = test system: MDA-MB-231 breast
[22] = test system: MDA-MB-435
[23] = test system: MOLT-4 leukemia
[24] = test system: NCI-H226 lung
[25] = test system: NCI-H23 lung
[26] = test system: NCI-H460 lung
[27] = test system: NCI-H522 lung
[28] = test system: NCI/ADR-RES ovarian
[29] = test system: OVCAR-3 ovarian
[30] = test system: OVCAR-5 ovarian
[31] = test system: OVCAR-8 ovarian
[32] = test system: PC-3 prostate
[33] = test system: RPMI-8226 leukemia
[34] = test system: RXF 393 renal
[35] = test system: SF-268 CNS
[36] = test system: SF-295 CNS
[37] = test system: SF-539 CNS
[38] = test system: SK-MEL-2 melanoma
[39] = test system: SK-MEL-5 melanoma
[40] = test system: SK-OV-3 ovarian
[41] = test system: SN12C renal
[42] = test system: SNB-19 CNS
[43] = test system: SR leukemia
[44] = test system: SW-620 colon
[45] = test system: T-47D breast
[46] = test system: TK-10 renal
[47] = test system: U251 CNS
[48] = test system: UACC-257 melanoma
[49] = test system: UACC-62 melanoma
[50] = test system: UO-31 renal

## NC(N)=N/N=C/c1c(-c2ccsc2)nc2n1CCS2
[1]
  GI50: 15.4 µM
  TGI: 38.7 µM
[2]
  GI50: 64.1 µM
  TGI: > 100 µM
[3]
  GI50: 73.7 µM
  TGI: > 100 µM
[4]
  GI50: 18.5 µM
  TGI: 46 µM
[5]
  GI50: 33.9 µM
  TGI: 78.7 µM
[6]
  GI50: 19.5 µM
  TGI: 54.6 µM
[7]
  GI50: 19.8 µM
  TGI: 48.5 µM
[8]
  GI50: 58 µM
  TGI: > 100 µM
[9]
  GI50: 16 µM
  TGI: 31.4 µM
[10]
  GI50: 14.3 µM
  TGI: 27.3 µM
[11]
  GI50: 24.7 µM
  TGI: 72.7 µM
[12]
  GI50: 19.8 µM
  TGI: 52.8 µM
[13]
  GI50: 34.9 µM
  TGI: > 100 µM
[14]
  GI50: 51 µM
  TGI: > 100 µM
[15]
  GI50: 48.8 µM
  TGI: > 100 µM
[16]
  GI50: 22.2 µM
  TGI: 65.8 µM
[17]
  GI50: 17.1 µM
  TGI: 43.1 µM
[18]
  GI50: 16.3 µM
  TGI: 30.6 µM
[19]
  GI50: 15.1 µM
  TGI: 29.1 µM
[20]
  GI50: 18 µM
  TGI: 50.2 µM
[21]
  GI50: 28.1 µM
  TGI: 82.1 µM
[22]
  GI50: 19.8 µM
  TGI: 47.9 µM
[23]
  GI50: 15.3 µM
  TGI: 42.9 µM
[24]
  GI50: 13 µM
  TGI: 40.1 µM
[25]
  GI50: 23.8 µM
  TGI: 80 µM
[26]
  GI50: 27.9 µM
  TGI: > 100 µM
[27]
  GI50: 39.3 µM
  TGI: > 100 µM
[28]
  GI50: > 100 µM
  TGI: > 100 µM
[29]
  GI50: 0.365 µM
  TGI: 24.1 µM
[30]
  GI50: 19.9 µM
  TGI: 48.2 µM
[31]
  GI50: 49 µM
  TGI: > 100 µM
[32]
  GI50: 17.5 µM
  TGI: 39.2 µM
[33]
  GI50: 31.9 µM
  TGI: > 100 µM
[34]
  GI50: 30.5 µM
  TGI: > 100 µM
[35]
  GI50: 18.4 µM
  TGI: 82.2 µM
[36]
  GI50: > 100 µM
  TGI: > 100 µM
[37]
  GI50: 14.4 µM
  TGI: 30.3 µM
[38]
  GI50: 51.9 µM
  TGI: > 100 µM
[39]
  GI50: 20 µM
  TGI: 41.4 µM
[40]
  GI50: 35.4 µM
  TGI: > 100 µM
[41]
  GI50: 15.5 µM
  TGI: 54.9 µM
[42]
  GI50: 26.9 µM
  TGI: > 100 µM
[43]
  GI50: 12.1 µM
  TGI: 28.8 µM
[44]
  GI50: 33.2 µM
  TGI: > 100 µM
[45]
  GI50: 30 µM
  TGI: 66.3 µM
[46]
  GI50: 26 µM
  TGI: 61.1 µM
[47]
  GI50: 14.6 µM
  TGI: 35.7 µM
[48]
  GI50: 20.8 µM
  TGI: 53.1 µM
[49]
  GI50: 21.6 µM
  TGI: 69.9 µM
[50]
  GI50: 65.5 µM
  TGI: > 100 µM

## COc1cc2c(Nc3ccc(NC(=O)Nc4ccc(Cl)c(C(F)(F)F)c4)c(Cl)c3)ncnc2cc1OCCCN1CCN(C)CC1
[4]
  GI50: 2.24 µM
  TGI: > 100 µM
[11]
  GI50: 3.9 µM
  TGI: > 100 µM
[28]
  GI50: 54.4 µM
  TGI: > 100 µM
[50]
  GI50: > 100 µM
  TGI: > 100 µM
